Values joined by “and” are separate entries in the source; they are usually repeats but may differ in a detail not shown here. Equal values may be shown once.
Tests used:
Genome polyprotein [1] = molecular target: T1, Genome polyprotein (dengue virus type 2, UniProt P29990); assay type: functional, Thailand/16681/1984
Genome polyprotein [2] = molecular target: T1, Genome polyprotein; assay type: functional, Thailand/16681/1984; remark: listed apart in the source

T1 sequence (P29990 1346-1475 limits assumed): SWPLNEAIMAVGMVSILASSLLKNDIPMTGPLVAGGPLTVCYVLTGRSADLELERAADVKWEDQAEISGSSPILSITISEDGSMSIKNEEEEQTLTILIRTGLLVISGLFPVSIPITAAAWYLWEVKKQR
T1 sequence (P29990 1476-2093 limits assumed): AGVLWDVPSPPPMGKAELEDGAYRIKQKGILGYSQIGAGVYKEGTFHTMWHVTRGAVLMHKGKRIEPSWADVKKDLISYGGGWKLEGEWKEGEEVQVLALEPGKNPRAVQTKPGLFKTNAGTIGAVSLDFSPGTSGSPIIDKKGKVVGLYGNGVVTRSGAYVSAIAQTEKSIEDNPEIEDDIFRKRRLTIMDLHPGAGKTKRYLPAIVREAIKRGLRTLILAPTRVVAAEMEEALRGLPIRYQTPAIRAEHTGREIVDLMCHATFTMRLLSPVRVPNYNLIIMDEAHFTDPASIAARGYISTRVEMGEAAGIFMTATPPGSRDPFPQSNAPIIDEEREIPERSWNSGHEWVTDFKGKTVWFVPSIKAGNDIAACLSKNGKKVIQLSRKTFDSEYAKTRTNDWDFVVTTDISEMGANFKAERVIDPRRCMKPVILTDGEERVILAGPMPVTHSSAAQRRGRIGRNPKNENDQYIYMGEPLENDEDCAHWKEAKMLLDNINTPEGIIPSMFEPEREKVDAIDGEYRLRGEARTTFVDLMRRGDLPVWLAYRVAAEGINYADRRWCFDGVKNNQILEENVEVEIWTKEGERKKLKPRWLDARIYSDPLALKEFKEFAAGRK

## Cc1c(C(=O)Nc2cccc(-n3nn[nH]c3=O)c2)cc(C2CC2)n1C
Genome polyprotein [1]
  IC50: > 100 µM
Genome polyprotein [2]
  IC50: > 99.5 µM

## O=C(Nc1ccc2c(c1)CNC2)N1C[C@H](C2CC2)C[C@@H]1C1CC1
Genome polyprotein [1]
  IC50: > 100 µM
Genome polyprotein [2]
  IC50: > 99.5 µM

## O=C1NC[C@H](c2ccc(OCc3ccccc3)c(Br)c2)N1C(=O)OCc1ccccc1
Genome polyprotein [1]
  IC50: > 100 µM
Genome polyprotein [2]
  IC50: > 99.5 µM

## O=C(O)CCCc1cc(NC(=O)c2cc(F)cc3[nH]ncc23)cc2c1CNC2
Genome polyprotein [1]
  IC50: 48.7 µM
Genome polyprotein [2]
  IC50: > 99.5 µM

## N#Cc1cc(-c2ccc3[nH]c(C(=O)O)cc3c2)c2nc[nH]c2c1
Genome polyprotein [1]
  IC50: > 100 µM
Genome polyprotein [2]
  IC50: > 99.5 µM

## O=C(Nc1ccc2c(c1)CNC2)N1CCC[C@H]1c1cc(C(F)(F)F)no1
Genome polyprotein [1]
  IC50: > 100 µM
Genome polyprotein [2]
  IC50: > 99.5 µM

## NS(=O)(=O)c1ccccc1N1CCN(Cc2c[nH]c3ccccc23)CC1
Genome polyprotein [1]
  IC50: > 100 µM
Genome polyprotein [2]
  IC50: > 99.5 µM

## CN(C)Cc1cc(NC(=O)[C@H](NC(=O)OCc2ccccc2)c2ccc(OCc3ccccc3)cc2)sn1
Genome polyprotein [1]
  IC50: > 100 µM
Genome polyprotein [2]
  IC50: > 99.5 µM

## NCc1ccc(NC(=O)[C@H]2[C@H]3CCCCC[C@H]3[C@H]2NC(=O)OCc2ccccc2)cc1
Genome polyprotein [1]
  IC50: > 100 µM
Genome polyprotein [2]
  IC50: 57.4 µM

## COCCN(C)C(=O)[C@H](Nc1ccc2c(c1)CNC2)c1cc(Cl)cc(C2CC2)c1
Genome polyprotein [1]
  IC50: > 100 µM
Genome polyprotein [2]
  IC50: > 99.5 µM

## O=C(Nc1cc(Cl)cc(C(=O)Nc2ccc(C3CCNCC3)cc2)c1)OCc1ccccc1
Genome polyprotein [1]
  IC50: 41.3 µM
Genome polyprotein [2]
  IC50: 15.7 µM and 21.1 µM

## O=C(Nc1cc(Cl)cc(CNc2cccc(-c3nn[nH]n3)c2)c1)OCc1ccccc1
Genome polyprotein [1]
  IC50: 8.36 µM and 5.15 µM
Genome polyprotein [2]
  IC50: 11.6 µM

## O=C(Nc1ccc2c(c1)CNC2)c1cc(Cl)cc2[nH]ncc12
Genome polyprotein [1]
  IC50: > 100 µM
Genome polyprotein [2]
  IC50: 72.5 µM and 58.7 µM and 89.7 µM

## COCc1cc(NC(=O)OCc2ccccc2)cc(C(=O)Nc2cccc(CN)c2)c1
Genome polyprotein [1]
  IC50: > 100 µM
Genome polyprotein [2]
  IC50: > 99.5 µM

## O=C(Nc1ccc2c(c1)CNC2)c1ccc2sncc2c1
Genome polyprotein [1]
  IC50: > 100 µM
Genome polyprotein [2]
  IC50: > 99.5 µM

## NCc1cccc(NC(=O)[C@H]2CC(=O)Nc3ccc(Br)cc32)c1
Genome polyprotein [1]
  IC50: > 100 µM
Genome polyprotein [2]
  IC50: > 99.5 µM

## N#Cc1cc(Cl)cc(C(=O)Nc2cccc(-c3nnn[nH]3)c2)c1
Genome polyprotein [1]
  IC50: > 100 µM
Genome polyprotein [2]
  IC50: > 99.5 µM

## NCc1cccc(NC(=O)c2cc(Cl)cc(F)c2F)c1
Genome polyprotein [1]
  IC50: > 100 µM
Genome polyprotein [2]
  IC50: > 99.5 µM

## Cc1ncc(C(=O)Nc2cccc(CN)c2)cc1NC(=O)OCc1ccccc1
Genome polyprotein [1]
  IC50: > 100 µM
Genome polyprotein [2]
  IC50: > 99.5 µM

## CC(C)CNC(=O)c1cc(Cl)c(F)cc1NS(=O)(=O)c1ccc(Oc2ccccc2Cl)cc1
Genome polyprotein [1]
  IC50: 14.5 µM and 12.6 µM and 12.2 µM and 23.3 µM and 8.64 µM
Genome polyprotein [2]
  IC50: 6.13 µM

## CCc1cc(C(=O)Nc2cccc(-c3nnn[nH]3)c2)ccc1Cl
Genome polyprotein [1]
  IC50: 67.2 µM
Genome polyprotein [2]
  IC50: > 99.5 µM

## O=C(Nc1ccc2c(c1)CNC2)c1cc(O)nc(C2CC2)c1
Genome polyprotein [1]
  IC50: > 100 µM
Genome polyprotein [2]
  IC50: > 99.5 µM

## NCC12CC(NC(=O)c3cc(Cl)cc(NC(=O)OCc4ccccc4)c3)(CCO1)C2
Genome polyprotein [1]
  IC50: > 100 µM
Genome polyprotein [2]
  IC50: > 99.5 µM

## NCc1cccc(NC(=O)c2cc(Cl)cc3c2CCC3)c1
Genome polyprotein [1]
  IC50: > 100 µM
Genome polyprotein [2]
  IC50: > 99.5 µM

## c1ccc(COc2ccc3c(CN4CCC(c5cscn5)CC4)c[nH]c3c2)cc1
Genome polyprotein [1]
  IC50: > 100 µM
Genome polyprotein [2]
  IC50: > 99.5 µM

## O=C(Nc1cc(Cl)cc(-c2ccc(C3(C(=O)O)CCNCC3)cc2)c1)OCc1ccccc1
Genome polyprotein [1]
  IC50: > 100 µM
Genome polyprotein [2]
  IC50: > 99.5 µM

## C[C@H]1CCCCN1C(=O)Cn1ccnc(N2CC[C@@H](CO)C2)c1=O
Genome polyprotein [1]
  IC50: > 100 µM
Genome polyprotein [2]
  IC50: > 99.5 µM

## O=C(c1cc(Cl)cc2[nH]ncc12)N1CCC(C2CCNCC2)CC1
Genome polyprotein [1]
  IC50: > 100 µM
Genome polyprotein [2]
  IC50: > 99.5 µM

## NS(=O)(=O)c1cc(F)cc(C(=O)Nc2ccc3c(c2)CNC3)c1
Genome polyprotein [1]
  IC50: > 100 µM
Genome polyprotein [2]
  IC50: > 99.5 µM

## NCc1cccc(NC(=O)[C@@H](NC(=O)OCc2ccccc2)C2CCN(Cc3ccncc3)CC2)c1
Genome polyprotein [1]
  IC50: > 100 µM
Genome polyprotein [2]
  IC50: > 99.5 µM

## CCn1c(=O)c(N2CC[C@@H](CO)C2)nc2ccc(C(=O)O)cc21
Genome polyprotein [1]
  IC50: > 100 µM
Genome polyprotein [2]
  IC50: > 99.5 µM

## NC[C@@H](NC(=O)c1cc(Cl)cc(NC(=O)OCc2ccccc2)c1)c1ccccc1
Genome polyprotein [1]
  IC50: > 100 µM
Genome polyprotein [2]
  IC50: > 99.5 µM

## NCc1cc(Cl)cc(C(=O)Nc2ccc3c(c2)C(=O)OC3)c1
Genome polyprotein [1]
  IC50: > 100 µM
Genome polyprotein [2]
  IC50: > 99.5 µM

## OCCCCCc1nc(-c2ccc(Br)o2)no1
Genome polyprotein [1]
  IC50: > 100 µM
Genome polyprotein [2]
  IC50: > 99.5 µM

## COCc1cc(Cl)cc(C(=O)Nc2ccc3c(c2)CNC3)c1
Genome polyprotein [1]
  IC50: > 100 µM
Genome polyprotein [2]
  IC50: > 99.5 µM

## C#C[C@H](Nc1cccc(C(=O)O)c1)c1cc(Cl)cc2[nH]ncc12
Genome polyprotein [1]
  IC50: > 100 µM
Genome polyprotein [2]
  IC50: > 99.5 µM

## Cc1cc(NC(=O)c2cc(Cl)cc3[nH]ncc23)ccc1N1CCNCC1
Genome polyprotein [1]
  IC50: > 100 µM
Genome polyprotein [2]
  IC50: 83.5 µM

## C[C@](O)(Cc1cc(Cl)cc(NC(=O)OCc2ccccc2)c1)c1cccc(CN)c1
Genome polyprotein [1]
  IC50: > 100 µM
Genome polyprotein [2]
  IC50: > 99.5 µM

## O=C(NCC(F)F)[C@H](Nc1ccc2c(c1)CNC2)c1cc(Br)ccc1OCc1ccccn1
Genome polyprotein [1]
  IC50: > 100 µM
Genome polyprotein [2]
  IC50: > 99.5 µM

## Cc1noc(C)c1Cc1ccc(C(=O)Nc2cccc(CN)c2)o1
Genome polyprotein [1]
  IC50: > 100 µM
Genome polyprotein [2]
  IC50: > 99.5 µM

## Cc1cc(NC(=O)OCc2ccccc2)cc(C(=O)Nc2cccc(CN)c2)c1
Genome polyprotein [1]
  IC50: > 100 µM
Genome polyprotein [2]
  IC50: > 99.5 µM

## CCCCS(=O)(=O)N1CCC([C@H](NC(=O)OCc2ccccc2)C(=O)Nc2cccc(CN)c2)CC1
Genome polyprotein [1]
  IC50: 99 µM
Genome polyprotein [2]
  IC50: > 99.5 µM
